ChEMBL document CHEMBL5584238, “Psammaplin A analogues with modified disulfide bond targeting histone deacetylases: Synthesis and biological evaluation” (Eur J Med Chem, 2024)

Tested on: HCT-116
Assay: Induction of cell cycle arrest in human HCT-116 cells assessed as accumulation of cells at G1 phase at 0.4 uM after 24 hrs by PI staining based flow cytometry analysis (reference value: 37.9%)
Format: functional

`O=C(NCC[Se][Se]CCNC(=O)/C(Cc1ccsc1)=N/O)/C(Cc1ccsc1)=N/O` gave an Activity of 7.85%.
